According to publication PMC10914731, “Homo-BacPROTAC-induced degradation of ClpC1 as a strategy against drug-resistant mycobacteria” (Nature Communications, 2024):
In brackets after ≈: the same amount, converted by molar mass. Several values for one entry are separate records, joined by “and”; a condition that tells them apart may be missing. Equal values may be shown once. Read-outs that look alike come from different tables or passages of the source. *1 amine or outer side, *2 acyl side, *3 side chain or, on linkers, in order; H or OH if unused. Where a SMILES comes first, the peptide text is derived from it. Bridges are numbered along the chain shown (N, C = ends). Roman numbers before positions name the chains, in order. [ ]: non-standard residue; d: D form. X6 = O=C([C@@H](N[*:1])[C@H](OCC=[*:3])c1ccccc1)[*:2]; NMeLeu(5-OH,4R) = CN[C@@H](C[C@@H](C)CO)C(=O)O; Trp(1-Me) = Cn1cc(C[C@H](N)C(=O)O)c2ccccc21; NMeL = CN[C@@H](CC(C)C)C(=O)O

How the values were obtained:
[1] = Microsomal stability, human; assay type: in vitro ADME
Procedure, shortened: (§1)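 Compound (1 µmol/l) was incubated at 37 °C with 0.5 mg/ml liver microsomes in 100 mM Tris-HCl pH 7.5, 6.5 mM MgCl2 and 1 mM NADPH. Reactions were quenched with acetonitrile at several time points and parent remaining quantified by HPLC-MS/MS; first-order half-lives were converted to clearance as %Qh via the well-stirred model.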

[2] = assay type: in vitro ADME, Mice
Procedure, shortened: as §1

Caco-2 monolayers = test: in vitro; conditions: mean value of P(A−B) and P(B−A)
Procedure, shortened: (§2)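 Permeability across Caco-2 monolayers was measured in both directions, apical-to-basolateral and basolateral-to-apical, in 10^-6 cm s-1. Efflux ratio = P(B−A)/P(A−B). Intrinsic permeability is the mean of P(A−B) and P(B−A).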

in vitro = conditions: human
Procedure, shortened: as §2

[3] = Hepatocyte stability, mice; assay type: in vitro ADME
Procedure, shortened: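 Parent depletion by HPLC-MS/MS in mouse hepatocyte suspension (50% serum, ~1 million cells/mL) with 1 µM compound over up to 6 h at 37 °C. Half-lives were scaled to % Qh using the well-stirred liver model.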

[4] = biological target: ClpC1 NTD protein (M. tuberculosis) (Mycobacterium tuberculosis, UniProt P9WPC9); test: biochemical; assay type: binding
[5] = assay type: in vitro ADME, Rat
Procedure, shortened: as §1

[6] = assay type: in vitro ADME, Rat; remark: listed apart in the source
[7] = biological target: His6-tagged ClpC1-NTD substrate, M. smegmatis ClpC1P1P2 (UniProt A0R574+P9WPC9); test: biochemical; assay type: biochemical; conditions: Msm; Measurement 1-6; read-out: 1-Dmax, single measurements
[8] = biological target: ClpC1-NTD substrate, M. tuberculosis ClpC1P1P2 (Mycobacterium tuberculosis, UniProt P9WPC9); test: biochemical; assay type: biochemical; conditions: Mtb
[9] = result in words
Mtb (moxR) FNDR-M1 = test: microbe, parasite or virus in culture; assay type: cell-based
Mycobacterium fortuitum = test: microbe, parasite or virus in culture; assay type: cell-based
[10] = system: non-replicating cells of Mtb H37Rv; assay type: cell-based, Mycobacterium tuberculosis
Mtb ATCC 35825 = test: microbe, parasite or virus in culture; assay type: cell-based
[11] = system: M. tuberculosis H37Rv (ATCC 27294); test: microbe, parasite or virus in culture; assay type: cell-based; conditions: Mycobacterium tuberculosis
Mycobacterium avium = test: microbe, parasite or virus in culture; assay type: cell-based
Mtb # 11291 = test: microbe, parasite or virus in culture; assay type: cell-based; conditions: for MIC: read-out: MIC Mtb # 11291
[12] = system: Mtb H37Rv in THP-1 macrophages; test: Intracellular MIC assay in THP-1 macrophages; assay type: cell-based, Mycobacterium tuberculosis; conditions: H37RV, 19.44 µM
[13] = system: Mtb (katG del) ATCC 35822; test: microbe, parasite or virus in culture; assay type: cell-based; conditions: Mycobacterium tuberculosis
Mycobacterium abscessus = test: microbe, parasite or virus in culture; assay type: cell-based
Mtb # 8673 = test: microbe, parasite or virus in culture; assay type: cell-based
[14] = system: Mycobacterium intracellulare; test: microbe, parasite or virus in culture; assay type: cell-based; conditions: Mycobacterium intracellulare; mean ± SD; read-out: MIC Mycobacterium intracellulare
Msm 607 = test: microbe, parasite or virus in culture; assay type: cell-based
[15] = Experiment 2, three replicate columns
[16] = Mycobacterium tuberculosis, mean, n = 2 well replicates
[17] = Mycobacterium tuberculosis, single well replicates

ClpC1 NTD protein (M. tuberculosis), sequence (P9WPC9 1-156, looked up, natural form): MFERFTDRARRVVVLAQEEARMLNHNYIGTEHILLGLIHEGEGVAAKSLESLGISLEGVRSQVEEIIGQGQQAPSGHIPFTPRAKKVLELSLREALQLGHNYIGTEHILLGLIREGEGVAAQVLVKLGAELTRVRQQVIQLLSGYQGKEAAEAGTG
ClpC1-NTD substrate, M. tuberculosis ClpC1P1P2, sequence (P9WPC5 whole entry): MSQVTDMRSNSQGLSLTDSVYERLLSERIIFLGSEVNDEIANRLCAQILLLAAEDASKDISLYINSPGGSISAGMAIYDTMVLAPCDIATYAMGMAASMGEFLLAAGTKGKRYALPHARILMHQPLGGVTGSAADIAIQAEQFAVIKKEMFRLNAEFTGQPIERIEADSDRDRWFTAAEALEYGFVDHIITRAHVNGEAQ
ClpC1-NTD substrate, M. tuberculosis ClpC1P1P2, sequence (P9WPC9 whole entry): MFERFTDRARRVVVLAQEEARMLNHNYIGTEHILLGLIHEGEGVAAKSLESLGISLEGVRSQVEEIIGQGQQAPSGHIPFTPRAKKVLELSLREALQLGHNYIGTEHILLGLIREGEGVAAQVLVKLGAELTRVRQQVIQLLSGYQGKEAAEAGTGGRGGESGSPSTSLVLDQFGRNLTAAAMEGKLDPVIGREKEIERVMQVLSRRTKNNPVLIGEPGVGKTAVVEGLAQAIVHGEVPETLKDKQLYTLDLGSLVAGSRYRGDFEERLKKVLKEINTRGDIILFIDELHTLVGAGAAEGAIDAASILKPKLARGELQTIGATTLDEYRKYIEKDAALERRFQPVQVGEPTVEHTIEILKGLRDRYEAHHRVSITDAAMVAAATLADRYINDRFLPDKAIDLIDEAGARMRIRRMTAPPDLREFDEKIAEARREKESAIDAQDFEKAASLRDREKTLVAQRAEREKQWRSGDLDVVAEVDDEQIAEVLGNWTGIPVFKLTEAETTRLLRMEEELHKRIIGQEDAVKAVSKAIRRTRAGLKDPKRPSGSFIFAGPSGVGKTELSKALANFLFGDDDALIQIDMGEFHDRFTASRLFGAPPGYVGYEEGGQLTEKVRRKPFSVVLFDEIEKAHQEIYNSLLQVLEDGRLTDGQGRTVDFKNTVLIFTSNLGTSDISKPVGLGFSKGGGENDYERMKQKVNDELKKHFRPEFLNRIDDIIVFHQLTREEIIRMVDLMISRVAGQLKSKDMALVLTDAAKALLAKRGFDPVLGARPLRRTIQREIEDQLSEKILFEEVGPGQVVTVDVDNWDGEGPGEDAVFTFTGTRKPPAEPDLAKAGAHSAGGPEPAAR
ClpC1-NTD substrate, M. tuberculosis ClpC1P1P2, sequence (P9WPC3 whole entry, further chain): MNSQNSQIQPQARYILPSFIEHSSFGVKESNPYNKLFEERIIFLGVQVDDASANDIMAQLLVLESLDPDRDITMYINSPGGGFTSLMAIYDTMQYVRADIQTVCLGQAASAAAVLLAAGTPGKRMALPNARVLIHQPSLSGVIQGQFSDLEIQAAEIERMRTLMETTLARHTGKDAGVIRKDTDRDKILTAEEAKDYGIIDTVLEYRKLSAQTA
His6-tagged ClpC1-NTD substrate, M. smegmatis ClpC1P1P2, sequence (P9WPC9 1-156, looked up, natural form): as the sequence (P9WPC9 1-156, looked up, natural form) above
His6-tagged ClpC1-NTD substrate, M. smegmatis ClpC1P1P2, sequence (A0R574 whole entry): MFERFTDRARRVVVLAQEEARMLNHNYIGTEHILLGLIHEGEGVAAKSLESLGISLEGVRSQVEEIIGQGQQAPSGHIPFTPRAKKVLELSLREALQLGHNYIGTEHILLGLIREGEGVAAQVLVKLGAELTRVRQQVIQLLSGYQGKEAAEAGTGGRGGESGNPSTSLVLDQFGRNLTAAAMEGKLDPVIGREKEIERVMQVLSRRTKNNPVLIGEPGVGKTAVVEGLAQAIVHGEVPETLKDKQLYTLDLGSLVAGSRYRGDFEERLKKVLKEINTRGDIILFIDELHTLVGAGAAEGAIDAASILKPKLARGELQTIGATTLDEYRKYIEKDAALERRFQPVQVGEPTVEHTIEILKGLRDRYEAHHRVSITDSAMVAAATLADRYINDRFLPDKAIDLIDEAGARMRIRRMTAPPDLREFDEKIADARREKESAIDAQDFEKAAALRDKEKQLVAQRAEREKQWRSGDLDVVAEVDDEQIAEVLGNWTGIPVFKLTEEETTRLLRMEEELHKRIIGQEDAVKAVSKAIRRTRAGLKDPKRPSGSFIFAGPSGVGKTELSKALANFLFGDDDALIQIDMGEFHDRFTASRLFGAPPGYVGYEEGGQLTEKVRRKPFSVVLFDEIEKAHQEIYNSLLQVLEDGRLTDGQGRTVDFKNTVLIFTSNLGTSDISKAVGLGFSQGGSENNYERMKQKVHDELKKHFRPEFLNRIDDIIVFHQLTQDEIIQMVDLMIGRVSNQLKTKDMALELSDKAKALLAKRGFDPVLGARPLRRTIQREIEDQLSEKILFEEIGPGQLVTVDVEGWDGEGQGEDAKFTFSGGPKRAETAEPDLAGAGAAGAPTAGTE

CC(C)C[C@H]1C(=O)N[C@@H](C(C)C)C(=O)N[C@@H](Cc2cn(C)c3ccccc23)C(=O)N(C)[C@@H](C[C@@H](C)CO)C(=O)N[C@@H](C)C(=O)N[C@@H]([C@H](OC/C=C/CO[C@H](c2ccccc2)[C@@H]2NC(=O)[C@H](C)NC(=O)[C@H](C[C@@H](C)CO)N(C)C(=O)[C@H](Cc3cn(C)c4ccccc34)NC(=O)[C@H](C(C)C)NC(=O)[C@H](CC(C)C)N(C)C(=O)[C@H](C(C)C)NC2=O)c2ccccc2)C(=O)N[C@@H](C(C)C)C(=O)N1C [Compound 17] (I: cyclo(A[X6]V[NMeL]V[Trp(1-Me)][NMeLeu(5-OH,4R)]) / II: cyclo(A[X6]V[NMeL]V[Trp(1-Me)][NMeLeu(5-OH,4R)]); staple (E) I:2-II:2)
Microsomal Stability Human QH ([1]; Human): <24.400%
Microsomal Stability Human ([1]; clearance in microsomes): < 24 %Qh
Microsomal Stability Mouse QH ([2]; Mouse): <24.200%
Microsomal Stability Mice ([2]; clearance in microsomes): < 24 %Qh
Caco-2 Int. Perm (Caco-2 monolayers): 1.7 10-6 cm s-1
Papp A→B (in vitro; Caco-2, CACO permeability PEAB, apical to basolateral): < 2.5 ×10⁻⁶ cm/s
Papp B→A (in vitro; Caco-2, Caco-2 permeability P (B-A), basolateral to apical): 0.9 ×10⁻⁶ cm/s
Hepatocyte Stability Mouse QH ([3]; Mouse): 20.539%
Hepatocyte Mice ([3]; clearance in hepatocytes): 21 %Qh
Kd ([4]; SPR (Supplementary Table 1), read-out: KD ClpC1-NTD Mean ± SD): 23 ± 5 nM
koff ClpC1-NTD ([4]; SPR, single independent measurements): 0.004 s⁻¹
Kd ([4]; SPR, single independent measurements, read-out: KD ClpC1-NTD): 26.7 nM and 19 nM
koff ([4]; SPR, single independent measurements, read-out: koff ClpC1-NTD): 0.005 s⁻¹
Microsomal Stability Rat QH ([5]; Rat): <23.100%
Microsomal Stability Rat ([5]; clearance in microsomes): < 23 %Qh
Hepatocyte Stability Rat QH ([6]; Rat): 12.036%
Hepatocyte Rat ([6]; clearance in hepatocytes): 12 %Qh
1-Dmax (percent substrate remaining at maximal degradation) [7]: 30.2%
DC50 ([8]; Measurement 1-4, read-out: DC50, single measurements): > 100000 nM
DC50 ([8]; mean of the measurements, read-out: DC50, Mean): > 100000 nM
stability upon storage [9]: compound decomposition upon storage

CO[C@H]1/C=C/O[C@@]2(C)Oc3c(C)c(O)c4c(O)c(c(/C=N/N5CCN(C)CC5)c(O)c4c3C2=O)NC(=O)/C(C)=C\C=C\[C@H](C)[C@H](O)[C@@H](C)[C@@H](O)[C@@H](C)[C@H](OC(C)=O)[C@@H]1C [Rifampicin, reference compound]
MIC (Mtb (moxR) FNDR-M1; M. tuberculosis FNDR-M1, single well replicates): 0.019 µM and 0.00949 µM (2×)
MIC (Mtb (moxR) FNDR-M1; Mycobacterium tuberculosis, Mtb (moxR) FNDR-M1, mean ± SD, n = 3 well replicates): 0.01 µM (≈ 8.23 ng/mL)
MIC (µg/ml) Mycobacterium fortuitum (Mycobacterium fortuitum; [15]): 1 µg/mL (≈ 1.22 µM)
MIC (Mycobacterium fortuitum; Experiment 2, three replicate columns, read-out: MIC (µM) Mycobacterium fortuitum): 1.22 µM
MIC (Mycobacterium fortuitum; Mycolicibacterium fortuitum, Experiment 2, three replicate columns, read-out: MIC (µM) Mycobacterium fortuitum): 1.22 µM
MIC (Mycobacterium fortuitum; Mycolicibacterium fortuitum, Experiment 2, three replicate columns, read-out: MIC (µg/ml) Mycobacterium fortuitum): 1 µg/mL
MIC (Mycobacterium fortuitum; Mycolicibacterium fortuitum, mean ± SD, read-out: MIC Mycobacterium fortuitum): 1.2 µM
inhibitory activity on non-growing Mtb H37Rv [10]: retained a partial inhibitory activity
MIC (Mtb ATCC 35825; Mycobacterium tuberculosis, ATCC35825, mean, n = 2 well replicates): 0.005 µM and 0.004 µg/mL
MIC (Mtb ATCC 35825; Mycobacterium tuberculosis, ATCC35825, single well replicates): 0.004 µg/mL and 0.005 µM
MIC (Mtb ATCC 35825; single well replicates): 0.005 µM (≈ 4.11 ng/mL)
MIC Mtb ATCC 35825 (Mtb ATCC 35825; single well replicates): 0.004 µg/mL (≈ 0.00486 µM)
MIC ([11]; M. tuberculosis H37Rv 27294, single well replicates, read-out: MIC): 0.00949 µM (≈ 7.81 ng/mL)
MIC ([11]; Mtb H37Rv, mean ± SD, n = 3 well replicates, read-out: MIC): 0.01 µM (≈ 8.23 ng/mL)
MIC ([11]; Set 1, read-out: MIC (Mtb H37Rv) Set 1): 0.00948 µM and 0.0078 µg/mL
MIC ([11]; Set 2, read-out: MIC (Mtb H37Rv) Set 2): 0.00948 µM and 0.0078 µg/mL
MIC ([11]; Set 3, done at a different day than Set 1 and Set 2, read-out: MIC (Mtb H37Rv) Set 3): 0.00948 µM and 0.0078 µg/mL
MIC ([11]; individual example (Supplementary Table 11), read-out: MIC Mtb H37Rv): 0.01 µM and 0.01 µg/mL
MIC ([11]; mean of 3 experiments +/- SD, unit taken from the sets above in the same table, read-out: MIC data (Mtb H37Rv) (+/- SD)): 0.009 µM and 0.0078 µg/mL
MIC (µg/ml) Mycobacterium avium (Mycobacterium avium; [15]): 0.25 µg/mL (≈ 0.304 µM)
MIC (Mycobacterium avium; Experiment 2, three replicate columns, read-out: MIC (µM) Mycobacterium avium): 0.30 µM
MIC (Mycobacterium avium; Mycobacterium avium, Experiment 2, three replicate columns, read-out: MIC (µM) Mycobacterium avium): 0.3 µM
MIC (Mycobacterium avium; Mycobacterium avium, Experiment 2, three replicate columns, read-out: MIC (µg/ml) Mycobacterium avium): 0.25 µg/mL
MIC (Mycobacterium avium; Mycobacterium avium, mean ± SD, read-out: MIC Mycobacterium avium): 0.3 µM
MIC (Mtb # 11291; [16]): 0.005 µM and 0.004 µg/mL
MIC (Mtb # 11291; [17]): 0.005 µM and 0.004 µg/mL
MIC Mtb # 11291 (Mtb # 11291; single well replicates): 0.004 µg/mL (≈ 0.00486 µM)
MIC (Mtb # 11291; single well replicates): 0.005 µM (≈ 4.11 ng/mL)
intracellular viable mycobacteria ([12]; 96 h): 4.26 log10 cfu/ml
intracellular viable mycobacteria ([12]; 168 h): 3.56 log10 cfu/ml
MIC ([13]; ATCC35822, M. tuberculosis ATCC 35822, single well replicates): 0.00949 µM (≈ 7.81 ng/mL)
MIC ([13]; ATCC35822, Mtb (katG del) ATCC 35822, mean ± SD, n = 3 well replicates): 0.01 µM (≈ 8.23 ng/mL)
MIC (µg/ml) Mycobacterium abscessus (Mycobacterium abscessus; [15]): 8 µg/mL (≈ 9.72 µM)
MIC (Mycobacterium abscessus; Experiment 2, three replicate columns, read-out: MIC (µM) Mycobacterium abscessus): 9.72 µM
MIC (Mycobacterium abscessus; Mycobacteroides abscessus, Experiment 2, three replicate columns, read-out: MIC (µM) Mycobacterium abscessus): 9.72 µM
MIC (Mycobacterium abscessus; Mycobacteroides abscessus, Experiment 2, three replicate columns, read-out: MIC (µg/ml) Mycobacterium abscessus): 8 µg/mL
MIC (Mycobacterium abscessus; Mycobacteroides abscessus, mean ± SD, read-out: MIC Mycobacterium abscessus): 9.7 µM
MIC (Mtb # 8673; [16]): 38.9 µM and 32 µg/mL
MIC (Mtb # 8673; [17]): 38.9 µM and 32 µg/mL
MIC (Mtb # 8673; single well replicates): 38.88 µM (≈ 32000 ng/mL)
MIC Mtb # 8673 (Mtb # 8673; single well replicates): 32 µg/mL (≈ 38.9 µM)
MIC [14]: 0.2 µM (≈ 165 ng/mL)
MIC (Msm 607; Mycolicibacterium smegmatis, 607, read-out: MIC Msm #607, individual example (Supplementary Table 11)): 9.7 µM and 8 µg/mL
MIC (Msm 607; Mycolicibacterium smegmatis, ATCC607, Set-3, done at a different day than Set 1 and Set 2, read-out: MIC (Msm ATCC607) Set-3): 9.72 µM and 8 µg/mL
MIC (Msm 607; Mycolicibacterium smegmatis, ATCC607, mean of 3 experiments ± SD, read-out: MIC including standard deviations (Msm ATCC607)): 13 µM and 10.6 µg/mL
MIC (Msm 607; Mycolicibacterium smegmatis, ATCC607, read-out: MIC (Msm ATCC607) Set-1): 9.72 µM and 8 µg/mL
MIC (Msm 607; Mycolicibacterium smegmatis, ATCC607, read-out: MIC (Msm ATCC607) Set-2): 19.4 µM and 16 µg/mL
